# Assay results as given in patent publication US6720142B1, “Method of determining evolutionary potential of mutant resistance genes and use thereof to screen for drug efficacy” (priority 1999, dated 2004).
# Legend:
# [1] = system: E. coli DH5α-E containing multiply mutated ampC; assay: MIC of population of E. coli host cells containing multiply mutated (DNA-shuffled) ampC; format: cell-based; conditions: Escherichia coli; lowest drug concentration that completely inhibited growth; overnight at 37° C., MH-I broth, 48-well plates, shuffled ampC library in DH5α-E
# Experimental: E. coli host cells prepared according to Example 4 were diluted into 100 ml MuellerHinton-IPTG (MH-T) broth. Duplicate samples of 10^0, 10^1, and 10^2 dilutions were spread onto L(tet) plates to estimate total transformants, and duplicate 10^0 and 10^1 samples were spread onto MH-I(ampicillin) plates to estimate the number of Amp^R transformants. 10 mg ampicillin was added to each culture using 1 ml of a 10 mg/ml ampicillin solution. The culture was allowed to stand overnight at 37° C. without shaking.
# Next, the minimum inhibitory concentration of a number of drug was determined. An estimate of viable cells was calculated by assuming that an A600 of 1.0 is equivalent to 1.9×10^8 per ml for DH5α-E cells. A sample of the overnight culture was diluted into 70 ml of MH-I so that the number of cells per ml 10^5 per ml. The resulting suspension was used to determine MIC in 48-well microtiter plates.
# (§1) Serial dilutions were prepared by first determining the volume of drug solution to be added to the first well in each row to achieve the desired concentration of drug in a total volume of 1 ml. The MIC was determined for the following drugs: ampicillin, pipericillin, temocillin, cephalothin, cefuroxime, cefotaxime, ceftazidime, cefepime, imipenem, meropenem, and aztreonam. To the first well in each row 1 ml of the diluted cell suspension was added, and to all remaining wells per row 0.5 ml of the diluted cell suspension was added. For each row, the predetermined volume of a drug solution was added to the first well per row, mixed well, and then 0.5 ml of the mixed solution was transferred to the next well, and so on until the serial dilutions were completed. From the last well in each row, 0.5 ml was removed so that all well contained 0.5 ml of the drug-containing culture. Plates were sealed with BreatheEasy film (Diversified Biotech, Boston, Mass.) and maintained overnight at 37° C. with shaking. […] The MICs, in μg/ml, for each of the above-identified drugs was as follows: ampicillin, >1024; pipericillin, >1024; temocillin, 32: cephalothin, 1024; cefuroxime, 512; cefotaxime, 8; ceftazidime, 64; cefepime, 1; imipenem, 0.25; meropenem, 0.03125; and aztreonam, 16.
# [2] = system: E. coli JM109 carrying the plasmid vector pACSE without an ampC gene; assay: MIC test, plasmid vector pACSE without an ampC gene; format: cell-based; conditions: pACSE (vector, no ampC)
# Experimental: (§2) Basically, a MIC determination is carried out by preparing serial dilutions of drugs in a micro-well plate and measuring host cell growth within those wells. The MIC for a particular set of host cells containing a mutant resistance gene is determined by examining the wells to locate the lowest concentration of drug which inhibited cell growth. This is capable of discriminating generally between those host cells containing mutant resistance genes conferring different degrees of resistance against the particular drug.
# as §1
# Plasmids were prepared from those isolates and were transformed into E. coli strain JM109. MICs conferred by each of those plasmids was determined as in Example 5.
# (§3) MICs of three of the plasmids containing the wildtype AmpC gene into which the above mutations have been introduced have been determined, as shown in Table 2 below.
# [3] = system: E. coli JM109 carrying pAmpC0 (wildtype E. coli K12 ampC gene); assay: MIC test, plasmid pAmpC0 (wildtype ampC gene); format: cell-based; conditions: for MIC: pAmpC0 (wildtype ampC); for resistance conferred by plasmid pAmpC0: wildtype ampC gene, Table 1 boxed cells
# Experimental: as §2
# All experiments utilizing ampicillin resistance will be directed toward the cloned and regulated ampC gene (or mutant ampC gene) in such a way that the regulation, i.e., the amount of enzyme produced per cell, will be held constant throughout the experiments and all of the “improvement” in resistance will come from improvement in β-lactamase activity.
# as §1, with “16. […]” for “16.”
# [4] = system: host cells carrying pAmpC0-305 (AmpC T121 to S); assay: MIC test, single-mutation plasmid pAmpC0-305; format: cell-based, E. coli; conditions: for MIC: pAmpC0-305, A663 to G, T121 to S
# Experimental: as §2, §1
# (§4) To determine the phenotypic effects of each of the amino acid substitutions, the A907C, A587G, A663G, T869G, and A884G mutations are being individually introduced into pAmpC0 by site-directed mutagenesis. It is expected that the A907C mutation will result in MICs that are identical to pAmpC13A. The A587G, A663G, and As84G mutations will also be introduced individually into AmpC13 to determine whether the combination of any of those mutations with A907C will result in increased resistance levels.
# as §3
# [5] = system: host cells carrying PAmpC0-307 (AmpC L290 to R); assay: MIC test, single-mutation plasmid PAmpC0-307; format: cell-based, E. coli; conditions: for MIC: PAmpC0-307, T869 to G, L290 to R
# Experimental: as §2, §1, §4, §3
# [6] = system: host cells carrying PAmpC0-308 (AmpC N295 to S); assay: MIC test, single-mutation plasmid PAmpC0-308; format: cell-based, E. coli; conditions: A644 to G
# [7] = system: E. coli carrying pAmpC13A (mutant ampC, S303R); assay: MIC test, mutant plasmid pAmpC13A; format: cell-based
# Experimental: (§5) Serial dilutions were prepared by first determining the volume of drug solution to be added to the first well in each row to achieve the desired concentration of drug in a total volume of 1 ml. The MIC was determined for the following drugs: ampicillin, pipericillin, temocillin, cephalothin, cefuroxime, cefotaxime, ceftazidime, cefepime, imipenem, meropenem, and aztreonam. To the first well in each row 1 ml of the diluted cell suspension was added, and to all remaining wells per row 0.5 ml of the diluted cell suspension was added. For each row, the predetermined volume of a drug solution was added to the first well per row, mixed well, and then 0.5 ml of the mixed solution was transferred to the next well, and so on until the serial dilutions were completed. From the last well in each row, 0.5 ml was removed so that all well contained 0.5 ml of the drug-containing culture. Plates were sealed with BreatheEasy film (Diversified Biotech, Boston, Mass.) and maintained overnight at 37° C. with shaking.
# (§6) Plasmids were prepared from those isolates and were transformed into E. coli strain JM109.
# [8] = system: E. coli carrying pAmpC21B (mutant ampC); assay: MIC test, mutant plasmid pAmpC21B; format: cell-based; conditions: for clinical resistance conferred by pAmpC21B: after two cycles of mutagenesis and selection
# Experimental: as §5, §6
# [9] = system: E. coli carrying pAmpC41A (mutant ampC); assay: MIC test, mutant plasmid pAmpC41A; format: cell-based
# Experimental: as §5, with “shaking. […]” for “shaking.”
# Plasmids were prepared from those isolates and were transformed into E. coli strain JM109. MICs conferred by each of those plasmids was determined as in Example 5. […]
Structure (SMILES),MIC [1] [µg/mL],MIC [2] [µg/mL],MIC [3] [µg/mL],resistance conferred by plasmid pAmpC0 [3],MIC [4] [µg/mL],MIC [5] [µg/mL],MIC [6] [µg/mL],clinical resistance conferred by pAmpC13A [7],improved resistance conferred by pAmpC13A [7],clinical resistance conferred by pAmpC21B [8],"improvement in resistance ([9]; pAmpC41A, first line) [fold]","increase in resistance ([8]; pAmpC21B, second line) [fold]",change in resistance by A663G (T121S) mutation vs wildtype pAmpC0 [4],change in resistance by T869G (L290R) mutation vs wildtype pAmpC0 [5],"improvement in resistance conferred by pAmpC41A ([9]; after subsequent rounds of mutagenesis and selection, relative to pAmpC13A)"
"CC1(C)S[C@@H]2[C@H](NC(=O)[C@H](N)c3ccccc3)C(=O)N2[C@H]1C(=O)O [Ampicillin, ampicillin]",> 1020,2,128,confers resistance,128,128,64,clinical resistance,improved resistance,clinical resistance,,,,,
"C[C@H]1[C@H](NC(=O)/C(=N\OC(C)(C)C(=O)O)c2csc(N)n2)C(=O)N1S(=O)(=O)O [Aztreonam, aztreonam]",16,0.5,4,not,4,4,4,,improved resistance,,,,,,
"CO/N=C(\C(=O)N[C@@H]1C(=O)N2C(C(=O)[O-])=C(C[N+]3(C)CCCC3)CS[C@H]12)c1csc(N)n1 [Cefepime, cefepime]",1,0.0312,0.0625,not,0.0625,0.0625,0.0625,,improved resistance,,128,2,,,
"CO/N=C(\C(=O)N[C@@H]1C(=O)N2C(C(=O)O)=C(COC(C)=O)CS[C@H]12)c1csc(N)n1 [Cefotaxime, cefotaxime]",8,0.0625,1,not,1,0.5,0.5,,improved resistance,,,,,,
"CC(C)(O/N=C(\C(=O)N[C@@H]1C(=O)N2C(C(=O)[O-])=C(C[n+]3ccccc3)CS[C@H]12)c1csc(N)n1)C(=O)O [Ceftazidime, ceftazidime]",64,0.5,2,not,2,1,2,clinical resistance,improved resistance,clinical resistance,,,,,
"CO/N=C(\C(=O)N[C@@H]1C(=O)N2C(C(=O)O)=C(COC(N)=O)CS[C@H]12)c1ccco1 [Cefuroxime, cefuroxime]",512,16,64,confers resistance,32,32,32,clinical resistance,,clinical resistance,,,,,
"CC(=O)OCC1=C(C(=O)O)N2C(=O)[C@@H](NC(=O)Cc3cccs3)[C@H]2SC1 [Cephalothin, cephalothin]",1020,16,1020,confers resistance,512,512,512,clinical resistance,,clinical resistance,,,,,
"C[C@@H](O)[C@H]1C(=O)N2C(C(=O)O)=C(SCCN=CN)C[C@H]12 [Imipenem, imipenem]",0.25,0.25,0.25,,0.125,0.125,0.125,,,,,,,,
"C[C@@H](O)[C@H]1C(=O)N2C(C(=O)O)=C(S[C@@H]3CN[C@H](C(=O)N(C)C)C3)[C@H](C)[C@H]12 [Meropenem, meropenem]",0.0312,0.00195,,not,0.0156,0.0312,0.0156,,improved resistance,,,,significantly increase resistance,significantly increase resistance,
"CCN1CCN(C(=O)N[C@@H](C(=O)N[C@@H]2C(=O)N3[C@@H]2SC(C)(C)[C@@H]3C(=O)O)c2ccccc2)C(=O)C1=O [Pipericillin, pipericillin]",,4,16,not,16,16,4,clinical resistance,improved resistance,clinical resistance,,,,,slight improvement in resistance
"CO[C@@]1(NC(=O)C(C(=O)O)c2ccsc2)C(=O)N2[C@@H](C(=O)O)C(C)(C)S[C@@H]21 (some centres unmarked) [Temocillin, temocillin]",32,16,16,not,16,8,8,clinical resistance,improved resistance,,,,,,
